Among the data in patent publication US7132504B2, “Hepatitis C virus inhibitors” (Bristol-Myers Squibb Company, priority 2003, dated 2006) are EC50 and IC50 values, retold here.

Assay [1] relates to HCV replicon in Huh7 cells. As to the kind of experiment: HCV replicon cell-based assay (FRET). As to conditions: Hepatitis C virus, Huh-7, 96 h, 4 days, read-out: Activity Range EC50. Also noted: species or system HCV strain 1b. An excerpt:
An HCV replicon whole cell system was established as described by Lohmann V, Korner F, Koch J, Herian U, Theilmann L, Bartenschlager R., Science 285(5424):110–3 (1999). This system enabled us to evaluate the effects of our HCV Protease compounds on HCV RNA replication. Briefly, using the HCV strain 1b sequence described in the Lohmann paper (Assession number:AJ238799), an HCV cDNA was generated encoding the 5′ internal ribosome entry site (IRES), the neomycin resistance gene, the EMCV (encephalomyocarditis viurs)-IRES and the HCV nonstructural proteins, NS3–NS5B, and 3′ non-translated region (NTR). In vitro transcripts of the cDNA were transfected into the human hepatoma cell line, Huh7. […] Resulting cell lines were characterized for positive and negative strand RNA production and protein production over time.
Huh7 cells, constitutively expressing the HCV replicon, were grown in Dulbecco's Modified Eagle Media (DMEM) containing 10% Fetal calf serum (FCS) and 1 mg/ml G418 (Gibco-BRL). Cells were seeded the night before (1.5×10^4 cells/well) in 96-well tissue-culture sterile plates. Compound and no compound controls were prepared in DMEM containing 4% FCS, 1:100 Penicillin/Streptomysin, 1:100 L-glutamine and 5% DMSO in the dilution plate (0.5% DMSO final concentration in the assay). Compound/DMSO mixes were added to the cells and incubated for 4 days at 37° C. After 4 days, plates were rinsed thoroughly with Phosphate-Buffered Saline (PBS) (3 times 150 μl). The cells were lysed with 25 μl of a lysis assay reagent containing the FRET peptide (RET S1, as described for the in vitro enzyme assay). The lysis assay reagent was made from 5× cell Luciferase cell culture lysis reagent (Promega #E153A) diluted to 1× with distilled water, NaCl added to 150 mM final, the FRET peptide diluted to 10 μM final from a 2 mM stock in 100% DMSO. The plate was then placed into the Cytofluor 4000 instrument which had been set to 340 nm excitation/490 nm emission, automatic mode for 21 cycles and the plate read in a kinetic mode. EC50 determinations were carried out as described for the IC50 determinations. […]
The percentage inhibition was calculated using the formula below: […]
The values were graphed and analyzed using XLFit to obtain the EC50 value.
In general terms: A replicon is a self-replicating genome or part of one, used to study replication in cells.

The target of assay [2] is T1, HCV NS3/4A protease complex (UniProt P27958, C1454S/C1711G, species not given).
T1 construct: fused on or other part: Three-lysine solubilising tail at the C-terminus of NS4A
Kind of assay: Recombinant HCV NS3/4A protease complex FRET peptide assay (strain not stated). Type of assay: biochemical. As to conditions: NS3/4A protease enzyme assay, read-out: Activity Range IC50. The text has this: The purpose of this in vitro assay was to measure the inhibition of HCV NS3 protease complexes, derived from the BMS strain, H77 strain or J416S strain, as described below, by compounds of the present invention. This assay provides an indication of how effective compounds of the present invention would be in inhibiting HCV proteolytic activity.
Serum from an HCV-infected patient was obtained from Dr. T. Wright, San Francisco Hospital. An engineered full-length cDNA (compliment deoxyribonucleic acid) template of the HCV genome (BMS strain) was constructed from DNA fragments obtained by reverse transcription-PCR (RT-PCR) of serum RNA (ribonucleic acid) and using primers selected on the basis of homology between other genotype 1a strains. From the determination of the entire genome sequence, a genotype 1a was assigned to the HCV isolate according to the classification of Simmonds et al. (See P Simmonds, K A Rose, S Graham, S W Chan, F McOmish, B C Dow, E A Follett, P L Yap and H Marsden, J. Clin. Microbiol., 31(6), 1493–1503 (1993)). […] The infectious clones, H77 (1a genotype) and J4L6S (1b genotype) were obtained from R. Purcell (NIH) and the sequences are published in Genbank (AAB67036, see Yanagi, M., Purcell, R. H., Emerson, S. U. and Bukh, J. Proc. Natl. Acad. Sci. U.S.A. 94(16), 8738–8743 (1997); AF054247, see Yanagi, M., St Claire, M., Shapiro, M., Emerson, S. U., Purcell, R. H. and Bukh, J, Virology 244 (1), 161–172. (1998)).
The H77 and J4L6S strains were used for production of recombinant NS3/4A protease complexes. DNA encoding the recombinant HCV NS3/4A protease complex (amino acids 1027 to 1711) for these strains were manipulated as described by P. Gallinari et al. (see Gallinari P, Paolini C, Brennan D, Nardi C, Steinkuhler C, De Francesco R. Biochemistry. 38(17):5620–32, (1999)). Briefly, a three-lysine solubilizing tail was added at the 3′-end of the NS4A coding region. The cysteine in the P1 position of the NS4A–NS4B cleavage site (amino acid 1711) was changed to a glycine to avoid the proteolytic cleavage of the lysine tag. Furthermore, a cysteine to serine mutation was introduced by PCR at amino acid position 1454 to prevent the autolytic cleavage in the NS3 helicase domain. The variant DNA fragment was cloned in the pET21b bacterial expression vector (Novagen) and the NS3/4A complex was expressed in Escherichia. coli strain BL21 (DE3) (Invitrogen) following the protocol described by P. Gallinari et al. (see Gallinari P, Brennan D, Nardi C, Brunetti M, Tomei L, Steinkuhler C, De Francesco R., J Virol. 72(8):6758–69 (1998)) with modifications. Briefly, the NS3/4A protease complex expression was induced with 0.5 millimolar (mM) Isopropyl β-D-1-thiogalactopyranoside (IPTG) for 22 hours (h) at 20° C. A typical fermentation (1 Liter (L)) yielded approximately 10 grams (g) of wet cell paste. The cells were resuspended in lysis buffer (10 mL/g) consisting of 25 mM N-(2-Hydroxyethyl)Piperazine-N′-(2-Ethane Sulfonic acid) (HEPES), pH 7.5, 20% glycerol, 500 mM Sodium Chloride (NaCl), 0.5% Triton X-100, 1 microgram/milliliter (“μg/mL”) lysozyme, 5 mM Magnesium Chloride (MgCl2), 1 μg/ml Dnasel, 5 mM β-Mercaptoethanol (βME), Protease inhibitor—Ethylenediamine Tetraacetic acid (EDTA) free (Roche), homogenized and incubated for 20 minutes (min) at 4° C. The homogenate was sonicated and clarified by ultra-centrifugation at 235000 g for 1 h at 4° C. Imidazole was added to the supernatant to a final concentration of 15 mM and the pH adjusted to 8.0. The crude protein extract was loaded on a Nickel—Nitrilotriacetic acid (Ni-NTA) column pre-equilibrated with buffer B (25 mM HEPES, pH 8.0, 20% glycerol, 500 mM NaCl, 0.5% Triton X-100, 15 mM imidazole, 5 mM βME). The sample was loaded at a flow rate of 1 mL/min. The column was washed with 15 column volumes of buffer C (same as buffer B except with 0.2% Triton X-100). The protein was eluted with 5 column volumes of buffer D (same as buffer C except with 200 mM Imidazole). […]

Broadly, the EC50 is the concentration needed to bring the measured effect to its halfway point. A word on the IC50: it is the point on the concentration scale where inhibition reaches its midpoint. As to `C=CC1C[C@]1(NC(=O)[C@@H]1C[C@@H](Oc2nccc3cc(OC)ccc23)CN1C(=O)[C@@H](NC(=O)OC(C)(C)C)C(C)(C)C)C(=O)NS(=O)(=O)N(C)c1ccccc1` (some centres unmarked) [Compound 20], in assay [1], the EC50 is under 150 nM. Besides, the IC50 in assay [2] was under 150 nM.
Regarding `C=CC1C[C@]1(NC(=O)[C@@H]1C[C@@H](Oc2cc(-c3ccccc3)nc3cc(OC)ccc23)CN1C(=O)[C@@H](NC(=O)OC)C(C)(C)C)C(=O)NS(=O)(=O)N(C)C` (some centres unmarked) [Compound 3], the EC50 in assay [1] was under 150 nM. Further, the 50% inhibitory concentration (IC50) in assay [2] was under 150 nM.
With `C=CC1C[C@]1(NC(=O)[C@@H]1C[C@@H](Oc2cc(-c3ccccc3)nc3cc(OC)ccc23)CN1C(=O)[C@@H](NC(=O)OC)C(C)(C)C)C(=O)NS(=O)(=O)N1CCC1` (some centres unmarked) [Compound 4], the EC50 in assay [1] lay in the range of 150 to 1500 nM. The concentration for half-maximal inhibition (IC50) in assay [2] is under 150 nM.
In the case of `C=CC1C[C@]1(NC(=O)[C@@H]1C[C@@H](Oc2cc(-c3ccccc3)nc3cc(OC)ccc23)CN1C(=O)[C@@H](NC(=O)OC(C)(C)C)C(C)(C)C)C(=O)NS(=O)(=O)N(C)CC` (some centres unmarked) [Compound 14], the EC50 in assay [1] was under 150 nM. In addition, the IC50 in assay [2] was under 150 nM.
For `C=CC1C[C@]1(NC(=O)[C@@H]1C[C@@H](Oc2cc(-c3ccccc3)nc3cc(OC)ccc23)CN1C(=O)[C@@H](NC(=O)OC)C(C)(C)C)C(=O)NS(=O)(=O)N(C)C(C)C` (some centres unmarked) [Compound 7], the EC50 in assay [1] lay within 150 to 1500 nM. The IC50 in assay [2] is under 150 nM.
The corresponding values for `C=CC1C[C@]1(NC(=O)[C@@H]1C[C@@H](Oc2cc(-c3ccccc3)nc3cc(OC)ccc23)CN1C(=O)[C@@H](NC(=O)OC)C(C)(C)C)C(=O)NS(=O)(=O)N1CCCCC1` (some centres unmarked) [Compound 10] are 150 to 1500 nM and under 150 nM.
For `C=CC1C[C@]1(NC(=O)[C@@H]1C[C@@H](Oc2cc(-c3ccccc3)nc3cc(OC)ccc23)CN1C(=O)[C@@H](NC(=O)OC)C(C)(C)C)C(=O)NS(=O)(=O)N1CCCC1` (some centres unmarked) [Compound 6] the same measures were 150 to 1500 nM and under 150 nM.
As to `C=CC1C[C@]1(NC(=O)[C@@H]1C[C@@H](Oc2nccc3cc(OC)ccc23)CN1C(=O)[C@@H](NC(=O)OC(C)(C)C)C(C)(C)C)C(=O)NS(=O)(=O)N(C)CC` (some centres unmarked) [Compound 19], in assay [1], the half-maximal effective concentration (EC50) was under 150 nM. Besides, the IC50 in assay [2] is under 150 nM.
Consider `C=CC1C[C@]1(NC(=O)[C@@H]1C[C@@H](Oc2nccc3ccccc23)CN1C(=O)[C@@H](NC(=O)OC(C)(C)C)C(C)(C)C)C(=O)NS(=O)(=O)N(C)C(C)C` (some centres unmarked) [Compound 22], for which the IC50 in assay [2] was 150 to 1500 nM.
In the case of `C=CC1C[C@]1(NC(=O)[C@@H]1C[C@@H](Oc2cc(-c3ccccc3)nc3cc(OC)ccc23)CN1C(=O)[C@@H](NC(=O)OC)C(C)(C)C)C(=O)NS(=O)(=O)N(C)OC` (some centres unmarked) [Compound 2], the 50% effective concentration (EC50) in assay [1] lay in the range of 150 to 1500 nM. Besides, in assay [2], the IC50 was under 150 nM.
For `C=CC1C[C@]1(NC(=O)[C@@H]1C[C@@H](Oc2cc(-c3ccccc3)nc3cc(OC)ccc23)CN1C(=O)[C@@H](NC(=O)OC(C)(C)C)C(C)(C)C)C(=O)NS(=O)(=O)N(C)C` (some centres unmarked) [Compound 15] the same measures were under 150 nM and under 150 nM.
The corresponding values for `C=CC1C[C@]1(NC(=O)[C@@H]1C[C@@H](Oc2nccc3cc(OC)ccc23)CN1C(=O)[C@@H](NC(=O)OC(C)(C)C)C(C)(C)C)C(=O)NS(=O)(=O)N1CCCC1` (some centres unmarked) [Compound 18] are under 150 nM and under 150 nM.
The corresponding values for `C=CC1C[C@]1(NC(=O)[C@@H]1C[C@@H](Oc2cc(-c3ccccc3)nc3cc(OC)ccc23)CN1C(=O)[C@@H](NC(=O)OC)C(C)(C)C)C(=O)NS(=O)(=O)N1CCCCO1` (some centres unmarked) [Compound 11] are over 1500 nM and 150 to 1500 nM.
`C=CC1C[C@]1(NC(=O)[C@@H]1C[C@@H](Oc2cc(-c3ccccc3)nc3cc(OC)ccc23)CN1C(=O)[C@@H](NC(=O)OC(C)(C)C)C(C)(C)C)C(=O)NS(=O)(=O)N(C)c1ccccc1` (some centres unmarked) [Compound 16]: the concentration giving a half-maximal response (EC50) in assay [1] is under 150 nM. Also, the IC50 in assay [2] was under 150 nM.
For `C=CC1C[C@]1(NC(=O)[C@@H]1C[C@@H](Oc2nccc3cc(OC)ccc23)CN1C(=O)[C@@H](NC(=O)OC(C)(C)C)C(C)(C)C)C(=O)NS(=O)(=O)N(C)C` (some centres unmarked) [Compound 17], the EC50 in assay [1] is 150 to 1500 nM. In assay [2], the IC50 was under 150 nM.
For `C=CC1C[C@]1(NC(=O)[C@@H]1C[C@@H](Oc2cc(-c3ccccc3)nc3cc(OC)ccc23)CN1C(=O)[C@@H](NC(=O)OC)C(C)(C)C)C(=O)NS(=O)(=O)N(C)CC` (some centres unmarked) [Compound 1] the same measures were under 150 nM and under 150 nM.
As for `C=CC1C[C@]1(NC(=O)[C@@H]1C[C@@H](Oc2cc(-c3ccccc3)nc3cc(OC)ccc23)CN1C(=O)[C@@H](NC(=O)OC)C(C)(C)C)C(=O)NS(=O)(=O)N1CCN(C)CC1` (some centres unmarked) [Compound 13], the EC50 in assay [1] was over 1500 nM. In addition, in assay [2], the IC50 fell in the range of 150 to 1500 nM.
Take `C=CC1C[C@]1(NC(=O)[C@@H]1C[C@@H](Oc2cc(-c3ccccc3)nc3cc(OC)ccc23)CN1C(=O)[C@@H](NC(=O)OC)C(C)(C)C)C(=O)NS(=O)(=O)N(C)c1ccccc1` (some centres unmarked) [Compound 5]: in assay [1], the concentration giving a half-maximal response (EC50) is under 150 nM. For the same compound, in assay [2], the concentration for half-maximal inhibition (IC50) is under 150 nM.
Turning to `C=CC1C[C@]1(NC(=O)[C@@H]1C[C@@H](Oc2nccc3cc(OC)ccc23)CN1C(=O)[C@@H](NC(=O)OC(C)(C)C)C(C)(C)C)C(=O)NS(=O)(=O)N(C)C(C)C` (some centres unmarked) [Compound 21], the EC50 in assay [1] was in the range of 150 to 1500 nM. For the same compound, the IC50 in assay [2] is 150 to 1500 nM.
For the compound `C=CC1C[C@]1(NC(=O)[C@@H]1C[C@@H](Oc2cc(-c3ccccc3)nc3cc(OC)ccc23)CN1C(=O)[C@@H](NC(=O)OC)C(C)(C)C)C(=O)NS(=O)(=O)N1CCOCC1` (some centres unmarked) [Compound 12], in assay [2], the IC50 fell in the range of 150 to 1500 nM.
